The text below walks through data of the supplement of paper PMC11208160.

The nature of the data set: recombinant UMI read abundance after kanamycin selection (control-corrected) (log10(CPM+1)); higher = more efficient recombination; extreme values may be limits of the assay; sequences stand for … in AGTGCAGAGAAAATCGGCCAGTTTTCTCTGCCTGCAGTCCGCATGCCGTGGGACCCCTTGGGTTCTAACCTGTTGCCTAGATTTATGCAGCGGACTGCCTTTCTCCCAAAGTGATAAACCGG…AGGTTGGTTTCACT; site = the 11-nt donor. A digest of the protocol: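 Sequencing read counts were converted to CPM, averaged over two replicates and scaled by control-derived factors. Results are given as log10(CPM+1). The reads covered the donor–target junction of recombinant UMIs from a pooled Escherichia coli screen of donor and donor-binding-loop pairs for the IS621 bridge recombinase.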
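Note: IS621 bridge recombinase in Escherichia coli cells against a fixed T5 target plasmid.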

In the case of “AGGAAGACATGGACCGGTTTTCCCGGTAATCCGTATTTGCA (site GGGAAGACTTC)”, the “recombinant UMI read abundance (log10)” value worked out at 0.

As for “AGGAAGACATGGACCGGTTTTCCCGGTAATCCGTATTTGCA (site GGGAAGACTTG)”, the “recombinant UMI read abundance (log10)” value was 0.614.

For the sequence “AGGAAGACATGGACCGGTTTTCCCGGTAATCCGTATTTGCA (site GGGAAGGCTTG)”, the “recombinant UMI read abundance (log10)” value turned out to be 0.

In the case of “AGGAAGACATGGACCGGTTTTCCCGGTAATCCGTATTTGCA (site GGGAATACTTG)”, the “recombinant UMI read abundance (log10)” value stood at 0.

In the case of “AGGAAGACATGGACCGGTTTTCCCGGTAATCCGTATTTGCA (site GGGACGACTTG)”, the “recombinant UMI read abundance (log10)” value turned out to be 0.00563.

For the sequence “AGGAAGACATGGACCGGTTTTCCCGGTAATCCGTATTTGCA (site GGGCAGACTTG)”, the “recombinant UMI read abundance (log10)” value stood at 0.837.

For “AGGAAGACATGGACCGGTTTTCCCGGTAATCCGTATTTGCA (site GTGAAGACTTG)”, the “recombinant UMI read abundance (log10)” value turned out to be 0.

As to “AGGAAGACATGGACCGGTTTTCCCGGTAATCCGTATTTGCA (site TCGAAGACTTG)”, the “recombinant UMI read abundance (log10)” value is 1.81.

As for “AGGAAGACATGGACCGGTTTTCCCGGTAATCCGTATTTGCA (site TGAAAGACTTG)”, the “recombinant UMI read abundance (log10)” value stood at 1.06.

Regarding “AGGAAGACATGGACCGGTTTTCCCGGTAATCCGTATTTGCA (site TGGAAAACTTG)”, the “recombinant UMI read abundance (log10)” value is 0.756.

For the sequence “AGGAAGACATGGACCGGTTTTCCCGGTAATCCGTATTTGCA (site TGGAAGACTCG)”, the “recombinant UMI read abundance (log10)” value amounted to 0.00521.

In the case of “AGGAAGACATGGACCGGTTTTCCCGGTAATCCGTATTTGCA (site TGGAAGACTTA)”, the “recombinant UMI read abundance (log10)” value came to 0.696.

As for “AGGAAGACATGGACCGGTTTTCCCGGTAATCCGTATTTGCA (site TGGAAGACTTG)”, the “recombinant UMI read abundance (log10)” value amounted to 1.16.

For “AGGAAGACATGGACCGGTTTTCCCGGTAATCCGTATTTGCA (site TGGAAGTCTTG)”, the “recombinant UMI read abundance (log10)” value was found to be 0.

“AGGAAGACATGGACCGGTTTTCCCGGTAATCCGTATTTGCA (site TGGATGACTTG)”: the “recombinant UMI read abundance (log10)” value is 0.00459.

In the case of “AGGAAGACATGGACCGGTTTTCCCGGTAATCCGTATTTGCA (site TGGGAGACTTG)”, the “recombinant UMI read abundance (log10)” value came to 0.

Regarding “AGGAAGACATGGACCGGTTTTCCCGGTAATCCGTATTTGTA (site AGGAAGACTTA)”, the “recombinant UMI read abundance (log10)” value was determined as 2.74.

With “AGGAAGACATGGACCGGTTTTCCCGGTAATCCGTATTTGTA (site AGGAAGACTTC)”, the “recombinant UMI read abundance (log10)” value was 0.521.

In the case of “AGGAAGACATGGACCGGTTTTCCCGGTAATCCGTATTTGTA (site AGGAAGACTTG)”, the “recombinant UMI read abundance (log10)” value was 2.11.

With “AGGAAGACATGGACCGGTTTTCCCGGTAATCCGTATTTGTA (site AGGAAGACTTT)”, the “recombinant UMI read abundance (log10)” value is 1.8.

For “AGGAAGGCATGGACCGGTTTTCCCGGTAATCCGTATTTGCA (site AGGAAGACTTG)”, the “recombinant UMI read abundance (log10)” value amounted to 1.98.

“AGGAAGGCATGGACCGGTTTTCCCGGTAATCCGTATTTGCA (site AGGAAGCCTTG)”: the “recombinant UMI read abundance (log10)” value was found to be 0.

For “AGGAAGGCATGGACCGGTTTTCCCGGTAATCCGTATTTGCA (site AGGAAGGCTTG)”, the “recombinant UMI read abundance (log10)” value was found to be 2.41.

For “AGGAAGGCATGGACCGGTTTTCCCGGTAATCCGTATTTGCA (site AGGAAGTCTTG)”, the “recombinant UMI read abundance (log10)” value was found to be 1.82.

Take “AGGAATGCATGGACCGGTTTTCCCGGTAATCCGTATTTGCA (site AGGAAGACTTG)”: the “recombinant UMI read abundance (log10)” value stood at 0.

Consider “AGGAATGCATGGACCGGTTTTCCCGGTAATCCGTATTTGCA (site AGGAATGCTTG)”, for which the “recombinant UMI read abundance (log10)” value amounted to 1.74.

With “AGGACGGCATGGACCGGTTTTCCCGGTAATCCGTATTTGCA (site AGGAAGACTTG)”, the “recombinant UMI read abundance (log10)” value is 0.

“AGGACGGCATGGACCGGTTTTCCCGGTAATCCGTATTTGCA (site AGGACGGCTTG)”: the “recombinant UMI read abundance (log10)” value was 2.23.

Consider “AGGACTACATGGACCGGTTTTCCCGGTAATCCGTATTTGAG (site AGGACTACTAT)”, for which the “recombinant UMI read abundance (log10)” value is 0.00837.

In the case of “AGGACTACATGGACCGGTTTTCCCGGTAATCCGTATTTGAG (site AGGACTACTCT)”, the “recombinant UMI read abundance (log10)” value came to 1.54.

“AGGACTACATGGACCGGTTTTCCCGGTAATCCGTATTTGAG (site AGGACTACTGT)”: the “recombinant UMI read abundance (log10)” value amounted to 0.

On to “AGGACTACATGGACCGGTTTTCCCGGTAATCCGTATTTGAG (site AGGACTACTTT)”, for which the “recombinant UMI read abundance (log10)” value came to 0.493.

As for “AGGACTACATGGACCGGTTTTCCCGGTAATCCGTATTTGAT (site AGGACTACTAT)”, the “recombinant UMI read abundance (log10)” value was found to be 1.77.

In the case of “AGGACTACATGGACCGGTTTTCCCGGTAATCCGTATTTGAT (site AGGACTACTCT)”, the “recombinant UMI read abundance (log10)” value stood at 0.00954.
